We go through 27 molecules from patent US11725010B2, “Polyheterocyclic compounds as METTL3 inhibitors” (Storm Therapeutics Limited, priority 2019, dated 2023).

By IC50 is commonly meant the midpoint of a concentration-inhibition curve.

One test addresses METTL3/14 (Homo sapiens (Human), UniProt Q86U44).
The test system of a further test is Caov-3 cells. Nature of the test: Caov3 CTG proliferation assay. The format is cell-based. The following applies: Homo sapiens. As for the experimental part:
CTG Assay (Caov3 Cell Line)
Upon treatment, Coav-3 cells were incubated for 10 min at RT with the CellTiter-Glo reagent (G7571, Promega). Measurement of the luminescence signal was performed on a microplate reader (Ensight, PerkinElmer).
Caov3 CTG Assay—Proliferation Assay

A further test relates to KASUMI-1 cells. Nature of the test: Kasumi cell assay (CellTiter-Glo cell growth). The format is cell-based. The following applies: Homo sapiens. As for the experimental part: Upon treatment, Kasumil cells were incubated for 10 min at RT with the CellTiter-Glo reagent (G7571, Promega). Measurement of the luminescence signal was performed on a microplate reader (Ensight, PerkinElmer).
For orientation: Cellular ATP, detected with luciferase, serves as a proxy for viable cell number.

Setting [1] is: Caov-3, treated for 120 hours, CellTiter-Glo luminescence, read-out: Caov3 cells IC50.
The mark [2] stands for this setting: Kasumi 1, treated for 120 hours, CellTiter-Glo luminescence, read-out: KASUMI1 cells IC50.
Setting [3] is: Caov-3, 120 h, read-out: Caov3 cells IC50 nM.
Setting [4] is: Kasumi 1, 120 h, read-out: KASUMI1 cells IC50 nM.

Where two headings read alike, the source gives them in different places.

METTL3/14, sequence (Q86U44 whole entry): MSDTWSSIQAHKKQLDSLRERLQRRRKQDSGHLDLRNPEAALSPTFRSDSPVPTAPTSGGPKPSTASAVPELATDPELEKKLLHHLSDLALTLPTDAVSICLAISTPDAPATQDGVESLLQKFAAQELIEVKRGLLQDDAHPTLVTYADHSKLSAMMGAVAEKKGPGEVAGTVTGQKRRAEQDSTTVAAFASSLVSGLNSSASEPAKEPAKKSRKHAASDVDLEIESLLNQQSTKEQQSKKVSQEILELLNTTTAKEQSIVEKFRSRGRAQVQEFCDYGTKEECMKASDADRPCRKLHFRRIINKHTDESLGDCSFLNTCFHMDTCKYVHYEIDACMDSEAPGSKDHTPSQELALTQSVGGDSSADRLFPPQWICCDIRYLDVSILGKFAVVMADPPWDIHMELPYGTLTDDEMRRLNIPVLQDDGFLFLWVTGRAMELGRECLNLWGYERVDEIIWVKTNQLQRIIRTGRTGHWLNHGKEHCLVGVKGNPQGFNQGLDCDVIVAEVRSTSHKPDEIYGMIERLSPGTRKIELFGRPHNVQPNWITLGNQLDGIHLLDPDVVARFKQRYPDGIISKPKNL
METTL3/14, sequence (Q9HCE5 whole entry partner): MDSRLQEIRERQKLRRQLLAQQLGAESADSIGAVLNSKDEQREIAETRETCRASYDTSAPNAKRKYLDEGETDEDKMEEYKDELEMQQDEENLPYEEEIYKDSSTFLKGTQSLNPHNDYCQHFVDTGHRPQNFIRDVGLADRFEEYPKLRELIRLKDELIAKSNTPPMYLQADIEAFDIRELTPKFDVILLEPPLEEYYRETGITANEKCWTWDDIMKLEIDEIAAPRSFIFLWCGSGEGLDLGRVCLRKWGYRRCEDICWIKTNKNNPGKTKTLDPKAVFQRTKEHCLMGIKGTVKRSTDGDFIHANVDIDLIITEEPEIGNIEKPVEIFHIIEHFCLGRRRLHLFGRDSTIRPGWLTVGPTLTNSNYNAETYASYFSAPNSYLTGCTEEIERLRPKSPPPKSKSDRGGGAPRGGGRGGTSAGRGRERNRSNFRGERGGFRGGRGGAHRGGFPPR

For `O=C(NCc1ccc2cc(CNC34CC5CC(CC(C5)C3)C4)[nH]c2c1)c1cc(=O)n2ccccc2n1` [Compound 11, N-[[2-[(1-adamantylamino)methyl]-1H-indol-6-yl]methyl]-4-oxo-pyrido[1,2-a]pyrimidine-2-carboxamide], the IC50 was found to be 6.1 nM on METTL3/14 and 607 nM in the test on Caov-3 cells (setting [1]). On to `O=C(NCc1ccc2cc(CNCC3(O)CCCC3)[nH]c2c1)c1cc(=O)n2ccccc2n1` [Compound 15, N-[[2-[[(1-hydroxycyclopentyl)methylamino]methyl]-1H-indol-6-yl]methyl]-4-oxo-pyrido[1,2-a]pyrimidine-2-carboxamide], for which the IC50 is 6.1 nM on METTL3/14 and 658 nM in the test with Caov-3 cells (setting [1]). Regarding `O=C(NCc1ccc2cc(CNCC34CC(F)(C3)C4)[nH]c2c1)c1cc(=O)n2ccccc2n1` [Compound 23, N-[(2-{[({3-fluorobicyclo[1.1.1]pentan-1-yl}methyl)amino]methyl}-1H-indol-6-yl)methyl]-4-oxo-4H-pyrido[1,2-a]pyrimidine-2-carboxamide], the IC50 against METTL3/14 was found to be 6.1 nM; with Caov-3 cells (setting [1]), 80.1 nM; in the test on KASUMI-1 cells (setting [2]) it was 263 nM. Regarding `O=C(NCc1ccc2cc(CNC3CCCC3)[nH]c2c1)c1cc(=O)n2ccccc2n1` [Compound 26, N-[[2-[(cyclopentylamino)methyl]-1H-indol-6-yl]methyl]-4-oxo-pyrido[1,2-a]pyrimidine-2-carboxamide], the 50% inhibitory concentration (IC50) on METTL3/14 was 6.1 nM; in the test on Caov-3 cells (setting [1]), 274 nM. The corresponding values for `O=C(NCc1ccc2cc(CNCC3CCCC3)[nH]c2c1)c1cc(=O)n2ccccc2n1` [Compound 27, N-[[2-[(cyclopentylmethylamino)methyl]-1H-indol-6-yl]methyl]-4-oxo-pyrido[1,2-a]pyrimidine-2-carboxamide] are 6.1 nM and 420 nM.

Turning to `CC(C)(C)CNCc1cc2ccc(CNC(=O)c3cc(=O)n4ccccc4n3)cc2[nH]1` [Compound 34, N-[[2-[(2,2-dimethylpropylamino)methyl]-1H-indol-6-yl]methyl]-4-oxo-pyrido[1,2-a]pyrimidine-2-carboxamide], the 50% inhibitory concentration (IC50) amounted to 6.1 nM against METTL3/14 and 988 nM in the test with Caov-3 cells (setting [1]). With `O=C(NCc1ccc2cc(CN[C@H]3CCC[C@@H]3O)[nH]c2c1)c1cc(=O)n2ccccc2n1` [Compound 36, N-{[2-({[(1S,2S)-2-hydroxycyclopentyl]amino}methyl)-1H-indol-6-yl]methyl}-4-oxo-4H-pyrido[1,2-a]pyrimidine-2-carboxamide], the figures for the 50% inhibitory concentration (IC50) against METTL3/14 and in the test with Caov-3 cells (setting [3]) were 6.1 nM and 973 nM, respectively. On to `O=C(NCc1ccc2cc(CN[C@H]3CCC[C@H]3O)[nH]c2c1)c1cc(=O)n2ccccc2n1` [Compound 38, N-{[2-({[(1S,2R)-2-hydroxycyclopentyl]amino}methyl)-1H-indol-6-yl]methyl}-4-oxo-4H-pyrido[1,2-a]pyrimidine-2-carboxamide], for which the half-inhibitory concentration (IC50) on METTL3/14 turned out to be 6.1 nM; with Caov-3 cells (setting [3]) it was 458 nM; in the test with KASUMI-1 cells (setting [4]) it was 2310 nM. Take `c1cc(-c2cn(Cc3ccc4cc(CNC5CCCC5)[nH]c4c3)nn2)c2cn[nH]c2c1` [Compound 55, N-[[6-[[4-(1H-indazol-4-yl)triazol-1-yl]methyl]-1H-indol-2-yl]methyl]cyclopentanamine]: the IC50 was determined as 6.1 nM against METTL3/14 and 764 nM in the test on Caov-3 cells (setting [1]). The corresponding values for `OC1(CNCc2cc3ccc(Cn4cc(-c5cccc6[nH]ncc56)nn4)cc3[nH]2)CCC1` [Compound 57, 1-[[[6-[[4-(1H-indazol-4-yl)triazol-1-yl]methyl]-1H-indol-2-yl]methylamino]methyl]cyclobutanol] are 6.1 nM and 1060 nM. Turning to `CC1(C)CN(Cc2cc3ccc(CNC(=O)c4cc(=O)n5ccccc5n4)cc3[nH]2)C1` [Compound 83, N-({2-[(3,3-dimethylazetidin-1-yl)methyl]-1H-indol-6-yl}methyl)-4-oxo-4H-pyrido[1,2-a]pyrimidine-2-carboxamide], the IC50 in the test with KASUMI-1 cells (setting [2]) was determined as 3680 nM. On to `CC(C)(C)C1CN(Cc2cc3ccc(CNC(=O)c4cc(=O)n5ccccc5n4)cc3[nH]2)C1` [Compound 97, N-({2-[(3-tert-butylazetidin-1-yl)methyl]-1H-indol-6-yl}methyl)-4-oxo-4H-pyrido[1,2-a]pyrimidine-2-carboxamide], for which the IC50 came to 1020 nM with Caov-3 cells (setting [1]) and 3090 nM in the test with KASUMI-1 cells (setting [2]). The corresponding values for `CC1CC(CNCc2cc3ccc(CNC(=O)c4cc(=O)n5ccccc5n4)cc3[nH]2)C1` (stereo not shown) [Compound 99, N-{[2-({[(3-methylcyclobutyl)methyl]amino}methyl)-1H-indol-6-yl]methyl}-4-oxo-4H-pyrido[1,2-a]pyrimidine-2-carboxamide] are 1090 nM and 3260 nM. The corresponding values for `CC(C)(C)C(C)(C)NCc1cc2ccc(CNC(=O)c3cc(=O)n4ccccc4n3)cc2[nH]1` [Compound 100, 4-oxo-N-[(2-{[(2,3,3-trimethylbutan-2-yl)amino]methyl}-1H-indol-6-yl)methyl]-4H-pyrido[1,2-a]pyrimidine-2-carboxamide] are 685 nM and 2540 nM. For the molecule `N#CC12CC(CNCc3cc4ccc(CNC(=O)c5cc(=O)n6ccccc6n5)cc4[nH]3)(C1)C2` [Compound 111, N-[(2-{[({3-cyanobicyclo[1.1.1]pentan-1-yl}methyl)amino]methyl}-1H-indol-6-yl)methyl]-4-oxo-4H-pyrido[1,2-a]pyrimidine-2-carboxamide], the IC50 in the test with KASUMI-1 cells (setting [2]) was 2290 nM.

Take `O=C(NCc1ccc2cc(CNC3(C4CCC4)CC3)[nH]c2c1)c1cc(=O)n2ccccc2n1` [Compound 116, N-[(2-{[(1-cyclobutylcyclopropyl)amino]methyl}-1H-indol-6-yl)methyl]-4-oxo-4H-pyrido[1,2-a]pyrimidine-2-carboxamide]: the IC50 against METTL3/14 was 6.1 nM; in the test on KASUMI-1 cells (setting [2]), 5070 nM. With `O=C(NCc1cnc2cc(CNCC34CC(F)(C3)C4)[nH]c2c1)c1cc(=O)n2ccccc2n1` [Compound 127, N-[(2-{[({3-fluorobicyclo[1.1.1]pentan-1-yl}methyl)amino]methyl}-1H-pyrrolo[3,2-b]pyridin-6-yl)methyl]-4-oxo-4H-pyrido[1,2-a]pyrimidine-2-carboxamide], the values for the IC50 on METTL3/14 and in the test with Caov-3 cells (setting [1]) were 6.1 nM and 624 nM, respectively. `CC1(CNCc2cc3ccc(CNC(=O)c4cc(=O)n5ccccc5n4)cc3[nH]2)CC1` [Example 6, N-[[2-[[(1-methylcyclopropyl)methylamino]methyl]-1H-indol-6-yl]methyl]-4-oxo-pyrido[1,2-a]pyrimidine-2-carboxamide]: the IC50 came out at 6.1 nM at METTL3/14 and 756 nM in the test with Caov-3 cells (setting [1]).

For `c1cc(-c2cn(Cc3ccc4cc(CNCC5CCC5)[nH]c4c3)nn2)c2cn[nH]c2c1` [Example 58, N-(cyclobutylmethyl)-1-[6-[[4-(1H-indazol-4-yl)triazol-1-yl]methyl]-1H-indol-2-yl]methanamine], the IC50 is 6.1 nM at METTL3/14 and 702 nM with Caov-3 cells (setting [1]). The corresponding values for `c1cc(-c2cn(Cc3cnc4cc(CNCC5CCC5)[nH]c4c3)nn2)c2cn[nH]c2c1` [Example 59, N-(cyclobutylmethyl)-1-[6-[[4-(1H-indazol-4-yl)triazol-1-yl]methyl]-1H-pyrrolo[3,2-b]pyridin-2-yl]methanamine] are 6.1 nM and 524 nM. On to `O=c1cc(-c2cn(Cc3ccc4cc(CNCC5CCC5)[nH]c4c3)nn2)nc2ccccn12` [Example 62, 2-[1-[[2-[(cyclobutylmethylamino)methyl]-1H-indol-6-yl]methyl]triazol-4-yl]pyrido[1,2-a]pyrimidin-4-one], for which the concentration for half-maximal inhibition (IC50) came to 6.1 nM against METTL3/14 and 696 nM with Caov-3 cells (setting [1]). Turning to `COc1cc(-c2cn(Cc3ccc4cc(CNCC5CCC5)[nH]c4c3)nn2)c2cncn2c1` [Example 63, N-(cyclobutylmethyl)-1-[6-[[4-(6-methoxyimidazo[1,5-a]pyridin-8-yl)triazol-1-yl]methyl]-1H-indol-2-yl]methanamine], the half-inhibitory concentration (IC50) in the test on Caov-3 cells (setting [1]) worked out at 257 nM; in the test on KASUMI-1 cells (setting [2]) it was 869 nM. On to `CN(Cc1cc2ccc(CNC(=O)c3cc(=O)n4ccccc4n3)cc2[nH]1)CC1CCC1` [Example 70, N-[[2-[[cyclobutylmethyl(methyl)amino]methyl]-1H-indol-6-yl]methyl]-4-oxo-pyrido[1,2-a]pyrimidine-2-carboxamide], for which the IC50 with KASUMI-1 cells (setting [4]) was 4900 nM. For `O=C(NCc1ccc2cc(CNCC3CCC3)[nH]c2c1)c1cnc2[nH]ccc2c1` [Example 137, N-[(2-{[(cyclobutylmethyl)amino]methyl}-1H-indol-6-yl)methyl]-1H-pyrrolo[2,3-b]pyridine-5-carboxamide], the IC50 is 6.1 nM against METTL3/14 and 1080 nM in the test with Caov-3 cells (setting [1]).

`COc1cnc(C#N)c(-c2cn(Cc3ccc4cc(CNCC56CC(C5)C6)[nH]c4c3)nn2)c1` [Example 148, 3-[1-({2-[({(Bicyclo [1.1.1]pent-1-yl)methyl}amino)methyl]-1H-indol-6-yl}methyl)-1H-1,2,3-triazol-4-yl]-5-methoxy-2-pyridine-carbonitrile] registered an IC50 on METTL3/14 of less than 6.1 nM. With `COc1cnc(C#N)c(-c2cn(Cc3ccc4cc(CNCC5CCC5)[nH]c4c3)nn2)c1` [Example 151, 3-{1-[(2-{[(Cyclobutylmethyl)amino]methyl}-1H-indol-6-yl)methyl]-1H-1,2,3-triazol-4-yl}-5-methoxy-2-pyridinecarbonitrile], the IC50 in the test with Caov-3 cells (setting [1]) was determined as 9060 nM; with KASUMI-1 cells (setting [2]), 7220 nM. As for `N#Cc1ncc(F)cc1-c1cn(Cc2ccc3cc(CNCC4CCC4)[nH]c3c2)nn1` [Example 152, 3-(1-((2-(((cyclobutylmethyl)amino)methyl)-1H-indol-6-yl)methyl)-1H-1,2,3-triazol-4-yl)-5-fluoropicolinonitrile], the figures for the concentration for half-maximal inhibition (IC50) with Caov-3 cells (setting [1]) and in the test on KASUMI-1 cells (setting [2]) were 5430 nM and 9960 nM, respectively.
